Measurements: patent publication US5597798A, “Taxol and epidermal growth factor used to enhance treatment of ovarian cancer” (The Regents of the University of California, priority 1994, dated 1997)
pIC50: −log10 of the molar value. Where two headings read alike, the source gives them in different places.

What was measured:
[1] = system: cellular cAMP; assay: Determination of cellular cAMP content; format: cell-based
[2] = system: 2008 human ovarian carcinoma cells; assay: Colony forming assay, effect of EGF on sensitivity to cytotoxic agents; format: cell-based
[3] = system: human EGF receptor; assay: Expression of human EGF receptor in transfected C127 cells (monoclonal antibody 528 staining); format: cell-based; conditions: Desferrioxamine 10 μM for 60 hs
[4] = system: C127 mouse fibroblasts transfected with the human EGF receptor gene; assay: Tetrazolium (MTT) growth rate assay, DDP sensitivity; format: cell-based
Method: Expression of the transferrin receptor gene is normally under the control of the transferrin […], and is regulated by iron (Owen and Kuhn, EMBO J. 6:1287 (1987)). Incubation with the iron chelator desferrioxamine induces expression of the transferrin receptor gene (Bridges and Cudkowicz, J. Biol. Chem. 259:12970 (1984)). […] Closed squares, transfected […] mouse fibroblasts pretreated with desferrioxamine; open squares, untreated cells. […] Louis, Mo.) was prepared at 1 mg/ml in DME media and on day 7, 50 μl are added to the microculture wells. After a 4 h incubation at 37° C., all the media was removed from each well, and 150 μl of 100% DMSO (dimethyl sulfoxide) was added to solubilize the MTT-formazan product. After thorough mixing, absorbance at 540 nm was measured with a Molecular Devices Vmax Kinetic microplate reader.

[5] = system: 2008 cells; assay: Colony forming (colonogenic) assay, effect of TPA, phorbol and staurosporine on DDP sensitivity
[6] = Homo sapiens, Ovarian carcinoma cell, 1 h, read-out: IC50 in absence of EGF
[7] = EGF and the cytotoxic agent concurrently for 1 h
[8] = mean ± SD of at least 3 experiments
[9] = read-out: IC50 in presence of EGF, EGF and the cytotoxic agent concurrently for 1 h

Compound | pIC50 [2, 6] | effect of EGF on sensitivity of 2008 cells to the agent (in words) [2, 7] | Dose modifying factor (ratio of the IC50 values in control and EGF-treated cells) [2, 8] | pIC50 [2, 9] | further results
C=C[C@@]1(C)CC(=O)[C@]2(O)[C@@]3(C)[C@@H](O)CCC(C)(C)[C@@H]3[C@H](O)[C@H](OC(C)=O)[C@@]2(C)O1 [Forskolin] | – | – | – | – | increase in cAMP content [1]: 297 fold; cAMP level, 10 min. mean ([1]; 10 min treatment, means of 6 experiments): 2135.0 pmol/mg protein; cAMP level, 60 min. mean ([1]; 60 min treatment, means of 6 experiments): 6365.0 pmol/mg protein
N[C@@H](Cc1ccc(N(CCCl)CCCl)cc1)C(=O)O [melphalan] | 4.92 | – | – | – | Dose modifying factor (ratio of the IC50 values in control and EGF-treated cells) [2]: 1.4 ± 0.4; effect of EGF on sensitivity of 2008 cells to the agent (in words) [2]: the effect did not reach the level of statistical significance; pIC50 ([2]; read-out: IC50 in presence of EGF): 5.05
N.N.O=C([O-])C1(C(=O)[O-])CCC1.[Pt+2] [carboplatin] | – | significant increase in sensitivity | 1.8 ± 0.4 | 4.17 | pIC50 ([2]; read-out: IC50 in absence of EGF, cytotoxic agent for 1 h, no EGF): 3.92
CC(=O)N(O)CCCCCNC(=O)CCC(=O)N(O)CCCCCNC(=O)CCC(=O)N(O)CCCCCN [desferrioxamine] | – | – | – | – | increase in number of human EGF receptors [3]: approximately 2 fold; modulation of DDP sensitivity in the absence of EGF ([4]; 10 μM desferrioxamine, no EGF): did not modulate the sensitivity of transfected C127 cells in the absence of EGF; toxicity to transfected C127 mouse fibroblasts ([4]; 10 μM, prolonged incubation for 2 weeks): non-toxic; increase in sensitivity to the cytotoxicity of DDP vs control cells ([4]; desferrioxamine treated cells, in the presence of 10 nM EGF): approximately 2 fold
CC(=O)O[C@H]1C(=O)[C@@]2(C)[C@H]([C@H](OC(=O)c3ccccc3)[C@]3(O)C[C@H](OC(=O)[C@H](O)[C@@H](NC(=O)c4ccccc4)c4ccccc4)C(C)=C1C3(C)C)[C@]1(OC(C)=O)CO[C@@H]1C[C@@H]2O [taxol] | 8.00 | significant increase in sensitivity | 1.4 ± 0.1 | – | pIC50 ([2]; Homo sapiens, Ovarian carcinoma cell, 1 h, read-out: IC50 in presence of EGF): 8.15
O=c1[nH]cc(F)c(=O)[nH]1 [5-fluorouracil] | 4.70 | significant increase in sensitivity | 1.8 ± 0.3 | 4.96 | –
CC1=C[C@H]2[C@@]3(O)[C@H](C)[C@@H](O)[C@]4(O)[C@H]([C@@H]3C=C(CO)C[C@]2(O)C1=O)C4(C)C [phorbol] | – | – | – | – | effect of phorbol on DDP sensitivity ([5]; 10^7 M phorbol for 1-h with DDP): failed to enhance DDP sensitivity, and, in fact slightly reduced it
COc1cccc2c1C(=O)c1c(O)c3c(c(O)c1C2=O)C[C@@](O)(C(=O)CO)C[C@@H]3O[C@H]1C[C@H](N)[C@H](O)[C@H](C)O1 [doxorubicin] | 5.82 | no significant effect | 1.1 ± 0.2 | 5.85 | –
CN[C@@H]1C[C@H]2O[C@@](C)([C@@H]1OC)n1c3ccccc3c3c4c(c5c6ccccc6n2c5c31)C(=O)NC4 [staurosporine] | – | – | – | – | effect of staurosporine by itself on sensitivity to DDP ([5]; control experiments): did not enhance or inhibit sensitivity to DDP; survival, % of that produced by DDP alone ([5]; staurosporine pretreatment 1 h, then DDP and TPA (all three agents)): 96%
